# Source: article PMC10108821, “Three tyrosine kinase inhibitors cause cardiotoxicity by inducing endoplasmic reticulum stress and inflammation in cardiomyocytes” (BMC Medicine, 2023)
# How the values were obtained:
# patients = details: cited from earlier work
# [1] = FDA adverse event reporting system (FAERS) analysis, reporting odds ratios; details: July 2014 to December 2020
# NRCMs [2] = experiment: Mitochondrial membrane potential by TMRE staining; assay type: cell-based, rat; details: 24 h of treatment
# Sprague-Dawley rats = experiment: Rat gavage cardiotoxicity model: survival, heart and body weight
# [3] = tested on: Phospho-eIF2α, XBP1s, ATF6 (cleaved); experiment: Western blot of ER stress effectors in NRCMs; assay type: cell-based, rat
# rat left ventricles = experiment: Rat gavage cardiotoxicity model: qRT-PCR in left ventricles; assay type: in vivo
# HELP hiPSC-CMs = experiment: CardioExcyte 96 microelectrode array: base impedance and extracellular field potential; assay type: cell-based, human; details: fixed doses: 10 µM, crizotinib and ponatinib 3.16 µM; up to 24 h
# Experimental: HELP hiPSC-CMs were seeded evenly into the 96-well microelectrode array, NSP-96 0.6mm sensor plate (Nanion technologies), at 50,000 cells per well. Measurements were started after 3-5 days of culture of these cells and until the impedance and the extracellular field potential are stable. Measurements were taken a few times before drug addition, and every 30~60 minutes after the drugs were added at 2x concentration. Values were averaged from 3 wells per group. Beat rate, amplitude of impedance, base impedance and FPDc were calculated by the Cardio Excyte Control 96 software package (Nanion Technologies).
# Cor.4U hiPSC-CMs [4] = experiment: ATP level (CellTiter-Glo) in hiPSC-CMs; assay type: cell-based, human
# Experimental: ATP content was measured using the CellTiter-Glo Luminescent Cell Viability Assay (Promega) following the manufacturer’s protocol. After adding CellTiter-Glo reagents and incubation, luminescence was quantified using a Synergy H1 plate reader (BioTek Instruments). ATP standards were prepared from 0.01 to 5 μM. For each drug, we fitted a four-parameter log-logistic model to calculate ED50 at day 5 (Fig S1). To rank the cellular toxicity of the eight TKIs (Fig 1T), we calculated (EC50-Cmax)/(EC50+Cmax) and arranged from the smallest to the biggest for increasing cellular toxicity.
# Cor.4U hiPSC-CMs [5] = experiment: 3'DGE-UMI RNAseq transcriptome of hiPSC-CMs
# NRCMs [6] = experiment: Calcium staining with Calbryte 520 AM; assay type: cell-based, rat; details: 0.5 and 1 h; 10 µM afatinib, 10 µM sorafenib, 5.62 µM ponatinib
# ER stress genes in NRCMs = experiment: qRT-PCR of ER stress genes in NRCMs; assay type: cell-based, rat
# Experimental: Rats were euthanized by decapitation and thoracic cavity was opened with scissors and hearts were popped out of the opening gently with fingers. Hearts were clipped and put in HBSS immediately; 20–40 hearts were collected into one sterile vial containing a magnetic stir bar and 1 mL digestive media made of 0.1% trypsin (Macklin) and 0.05% collagenase (Gibco) in HBSS. Hearts were minced until they were uniform in size. Digestive media was added to 10 mL for 40 hearts and stirred gently for 6 min. Supernatant was discarded and the digestion was repeated once; 10 mL digestive media was added and stirred gently for 10 min. The supernatant with cells were collected and the digestion and collection were repeated 4 times. Cells were centrifuged at 1200 rpm for 5 min, resuspended in media (Dulbecco’s modified Eagleʼs medium (Gibco)) with 10% fetal bovine serum (FBS; VISTECH), 1% penicillin–streptomycin, and 1% 0.1 M 5-bromo-2-deoxyuridine solution (Shanghai Yuanye) and filtered through a 40-μm cell strainer. Cells were seeded on a 100-mm plastic dish and cultured in a 5% CO2 incubator at 37 °C for 2 h to allow non-myocytes to adhere to the plate. The dish was swirled and media gently pipetted up and down to detach lightly attached cardiomyocytes. […] All drug treatments were performed after this media change.
# RNA was isolated based on a standard protocol using TRIzol reagent (Vazyme). TRIzol (1ml per 1 well of a 6-well plate) was used to lyse cells and chloroform was added for RNA separation. Samples were shaked vigorously by hand for 15 seconds and incubated at room temperature for 2-3 minutes. RNA was present in the aqueous phase after centrifuge at 12000 x g for 15 minutes. Isopropyl alcohol was mixed to precipitate RNA from the aqueous phase. […] 1 μg total RNA was used for cDNA synthesis using a reverse transcription kit (Bioman). We then measured expression of genes of interest with SYBRR Green qPCR Mix (Bioman) using Applied Biosystems 7500 Quantitative PCR Instrument. Gene expression was normalized to the 18S ribosomal RNA expression and primers were listed in Primers Table.
# NRCMs [7] = tested on: NRCMs
# Experimental: After treatment, cells were stained with 5 μg/mL Propidium iodide (Sigma-Aldrich) mixed with Hoechst33342 (Solarbio) in Phenol red-free DMEM (Procell) in a 5% CO2 incubator at 37°C for 30 minutes. Images of PI staining were acquired through the filter Ex/Em=555/624nm and of the nuclei staining through the filter Ex/Em=405/452 using ImageXpress Micro Confocal-AWES (Molecular Devices).
# NRCMs [8] = experiment: Seahorse assay: oxygen consumption and extracellular acidification; assay type: cell-based, rat; details: 24 h; fixed doses: 10 µM, crizotinib and ponatinib 3.16 µM
# Experimental: (§1) Rats were euthanized by decapitation and thoracic cavity was opened with scissors and hearts were popped out of the opening gently with fingers. Hearts were clipped and put in HBSS immediately; 20–40 hearts were collected into one sterile vial containing a magnetic stir bar and 1 mL digestive media made of 0.1% trypsin (Macklin) and 0.05% collagenase (Gibco) in HBSS. Hearts were minced until they were uniform in size. Digestive media was added to 10 mL for 40 hearts and stirred gently for 6 min. Supernatant was discarded and the digestion was repeated once; 10 mL digestive media was added and stirred gently for 10 min. The supernatant with cells were collected and the digestion and collection were repeated 4 times. Cells were centrifuged at 1200 rpm for 5 min, resuspended in media (Dulbecco’s modified Eagleʼs medium (Gibco)) with 10% fetal bovine serum (FBS; VISTECH), 1% penicillin–streptomycin, and 1% 0.1 M 5-bromo-2-deoxyuridine solution (Shanghai Yuanye) and filtered through a 40-μm cell strainer. Cells were seeded on a 100-mm plastic dish and cultured in a 5% CO2 incubator at 37 °C for 2 h to allow non-myocytes to adhere to the plate. The dish was swirled and media gently pipetted up and down to detach lightly attached cardiomyocytes. The collected myocytes were seeded in the same media described before; 48 h after plating, medium was exchanged to fresh DMEM (Gibco) with or without 2% FBS. All drug treatments were performed after this media change.
# NRCMs were seeded evenly into the Seahorse XF96 cell culture plates (Agilent) and cultured in DMEM high glucose with 2% FBS. About 2 hours before the test, cells were moved to a non-CO2 incubator at 37 ° C and incubated for 1 hour. 1 hour prior to the test, culture media was replaced with the Seahorse Basal DMEM at 37°C (with appropriate concentration of glucose, 4mM L-glutamine, 1 mM sodium pyruvate and 1% penicillin-streptomycin solution) and incubated in a non-CO2 incubator at 37°C for 1 hour. Drugs were prepared at 8x to 10x concentrations with the corresponding seahorse media as in each well and added into ports of Seahorse XF96 cartridge plates which have been hydrated overnight. XFe96 Extracellular Flux Analyzer (Agilent) was used to measure oxygen consumption rate and extracellular acidification rate of cells with different drug treatments.
# NRCMs [9] = experiment: qRT-PCR of fetal, pro-inflammatory and ER stress genes with pathway-selective inhibitors; assay type: cell-based, rat; details: 24 h
# Experimental: as §1
# (§2) RNA was isolated based on a standard protocol using TRIzol reagent (Vazyme). TRIzol (1ml per 1 well of a 6-well plate) was used to lyse cells and chloroform was added for RNA separation. Samples were shaked vigorously by hand for 15 seconds and incubated at room temperature for 2-3 minutes. RNA was present in the aqueous phase after centrifuge at 12000 x g for 15 minutes. Isopropyl alcohol was mixed to precipitate RNA from the aqueous phase. RNA precipitations were washed with 75% ethanol once and re-dissolved in RNase-free water. 1 μg total RNA was used for cDNA synthesis using a reverse transcription kit (Bioman). We then measured expression of genes of interest with SYBRR Green qPCR Mix (Bioman) using Applied Biosystems 7500 Quantitative PCR Instrument. Gene expression was normalized to the 18S ribosomal RNA expression and primers were listed in Primers Table.
# H9C2 cell line = experiment: qRT-PCR of inflammatory genes in H9C2 cells; assay type: cell-based, rat; details: ISRIB 200 nM or salubrinal 20 μM with 3 TKIs, 24-hr
# Experimental: as §2
# H9C2 cells were a gift from Dr. Rong Qi in Peking University Health Science Center (they were originally purchased from the Cell Bank/Stem cell bank, Chinese Academy of Science). […] Media was changed to DMEM (Gibco) containing 2% FBS 12 hours before treatment. All treatments were performed under DMEM containing 2% FBS.
# [10] = high PC1 loadings, ponatinib at high dose
compound,measurement,setting,value
Cc1ccc(C(=O)Nc2ccc(CN3CCN(C)CC3)c(C(F)(F)F)c2)cc1C#Cc1cnc2cccnn12 [ponatinib],incidence of arterial occlusion events,patients,26%
same,level of cardiotoxicity based on literature reports,"patients; ref Table S1, 2, 4, 26–36",high-levels of cardiotoxicity
same,"cardiotoxicity events in FAERS, reporting odds ratios (RORs)",[1],caused the most cardiotoxicity with significant reporting odds ratios (RORs)
same,mitochondrial membrane potential,NRCMs [2],trend of decreasing mitochondrial membrane potentials
same,death of animals,"Sprague-Dawley rats; 15 mg/kg gavage once daily, 3 or 7 days",one rat died
same,heart or body weight,"Sprague-Dawley rats; day 7, ponatinib 15 mg/kg, sorafenib 50 mg/kg gavage once daily",decreased
same,duration of activated eIF2α phosphorylation,[3],24 h
same,Dnajb9 expression,"rat left ventricles; day 7, 15 mg/kg",significantly increased
same,gene expression of Anp,"rat left ventricles; ponatinib 15 mg/kg, sorafenib 50 mg/kg gavage, 3 or 7 days",significant increase
same,"effect on beat rate, contraction, base impedance and corrected field potential duration",HELP hiPSC-CMs,reduced beat rate and corrected field potential duration
same,effect on ATP levels,"Cor.4U hiPSC-CMs [4]; 0.32 to 10 µM, day 1 to day 5",dose-dependent and time-dependent reduction in ATP levels
same,dose-dependent toxicity (ATP fold changes),"Cor.4U hiPSC-CMs [4]; day 1, different doses, RNAseq conditions",dose-dependent toxicity
same,"expression of tRNA aminoacylation gene markers (SARS, GARS)",Cor.4U hiPSC-CMs [5]; Cluster 3,increased
same,expression of genes associated with heart contraction,"Cor.4U hiPSC-CMs [5]; Cluster 4, day 3 or day 5",upregulated
same,"expression of genes associated with ER stress (ATF4, NUPR1, DDIT3, TRIB3, CHAC1, SESN2, HERPUD1)",Cor.4U hiPSC-CMs [5]; [10],upregulated
same,"expression of genes related to cardiomyopathy and sarcomeric structure (MYH7, SYNPO2L, LDB3, ACTN2, MYLK3)",Cor.4U hiPSC-CMs [5]; [10],downregulated
same,cytosolic calcium concentration,NRCMs [6],did not cause any significant changes in calcium concentration
same,expression of Dnajb9,ER stress genes in NRCMs; 24 h,most robust upregulation of Dnajb9 among the 3 TKIs
same,expression of Herpud1,ER stress genes in NRCMs; 24 h,most induced
same,"temporal activation of ER stress genes, 72 versus 24 h","ER stress genes in NRCMs; afatinib 5.62 µM, sorafenib 3.16 μM, ponatinib 1.78 μM","the ATF4 and the ATF6 axes, but not XBP1s, showed time-dependent upregulation"
same,relative activation of the three UPR branches,"ER stress genes in NRCMs; high-dose treatment, 24 h",induced activation of three axes to similar degrees
same,cell death,"NRCMs [7]; 24-h treatment, 10 µM afatinib, 10 µM sorafenib, 5.62 µM ponatinib",very little cell death
same,basal oxygen consumption rate (OCR),NRCMs [8],trend of inhibiting basal oxygen consumption rate (OCR)
same,"maximal, spare and non-mitochondrial oxygen consumption",NRCMs [8],"inhibited maximal, spare, and non-mitochondrial oxygen consumption significantly"
O=C(COc1ccc(Cl)cc1)NC1CCC(NC(=O)COc2ccc(Cl)cc2)CC1 (centres unmarked) [ISRIB],"expression of Txnip, Il1b, Tnf, Nfkb1 and Il6 induced by TKIs",NRCMs [9]; ISRIB 200 nM co-treatment,"inhibited the expression of Txnip, Il1b, and Tnf to similar degrees as 4μ8c, but did not hamper the expression of Nfkb1 and Il6 as potently as 4μ8c in combination with ponatinib"
same,expression of cardiac fetal genes induced by TKIs,NRCMs [9]; ISRIB 200 nM co-treatment,inhibited the expression of cardiac fetal genes to a similar level as 4μ8c
same,"effect on Atf4, Ddit3, Xbp1s and Dnajb9 expression induced by TKIs",NRCMs [9]; ISRIB 200 nM or 4μ8c 10 μM with TKIs,inhibited Atf4 and Ddit3 significantly without affecting the XBP1s axis too much
same,expression of inflammatory genes induced by TKIs,H9C2 cell line,"blocked upregulation of inflammatory genes (Nfkb1, Il6. and Tnf) by TKIs"
same,rescue from cell death induced by sorafenib,"NRCMs [7]; ISRIB 200 nM or 4μ8c 10 μM with 10 µM sorafenib, 24-hr",had no such effect
